Results reported in publication PMC12679539, “Synthesis and evaluation of nitroheterocyclic aromatic adamantane amides with trypanocidal activity. Part II” (RSC Medicinal Chemistry, 2025).

What was measured:
[1] = Cytotoxicity on THP-1-derived macrophages (MTT assay); assay type: cell-based; settings: human, THP-1-derived macrophages (PMA-differentiated), value or interval
Method: The THP-1 cell line, a human leukemia line (ATCC® TIB-202™), was cultured in RPMI-1640 medium supplemented with 10% heat-inactivated fetal bovine serum (FBS), 2 mM. L-Glutamine, 100 IU mL^−1 penicillin/streptomycin, and 20 mM HEPES. The cells were maintained in a humidified incubator at 37 °C with 5% CO2. Subculturing was performed every three days, using 20 mL of media at a concentration of 2 × 10^5 cells per mL in a T75 flask. All cell culture reagents were purchased from Lonza Bioscience (Morrisville, NC).
The cytotoxicity of the compounds on THP-1-derived macrophages was evaluated using the colorimetric MTT assay (3-(4,5-dimethylthiazol-2-yl)-2,5-diphenyltetrazolium bromide), as described in Magoulas et al. (2021).[28] THP-1 cells were suspended in complete RPMI medium at a density of 1 × 10^6 cells per mL, and 100 μL of this suspension was seeded into each well of a 96-well plate. The cells were differentiated into macrophages by adding 40 ng mL^−1 of phorbol-myristate 13-acetate (PMA, Sigma, Saint Louis, MI, USA) for 24 hours, followed by replacement with fresh medium for an additional 24 hours. Subsequently, the cells were incubated with 100 μL of various compounds, diluted in complete RPMI medium, at concentrations ranging from 100 to 12.5 μM. Each condition was tested in triplicate. After 72 hours of incubation at 37 °C with 5% CO2, the medium was removed, and 200 μL of a 0.5 mg mL^−1 MTT solution, diluted in RPMI, was added to each well. The plates were incubated for an additional 4 hours. Following this incubation, 160 μL of the medium was removed and replaced with 160 μL of 2-propanol. Absorbance was measured at 570 nm using a Synergy 2 Multi-Mode Reader (Biotek, Winooski, VT, USA). Cytotoxicity was determined by presenting the CC50 (the concentration of the drug that reduces cell viability by 50%) interval or by calculating the CC50 value through non-linear regression analysis using GraphPad Prism version 8.1.1 for Windows (GraphPad Software, San Diego, CA, USA). The results represent the average of at least three independent experiments.

[2] = system: L. infantum promastigotes; assay: Activity against Leishmania infantum promastigotes (resazurin assay); assay type: cell-based, Leishmania infantum (MHOM/MA/67/ITMAP-263); settings: for IC50: Leishmania infantum, promastigotes, 72 h, 95% CI in brackets; for SI (promastigotes) CC50/Li IC50: THP-1 CC50 / L. infantum promastigote IC50
Method: Promastigotes from the L. infantum strain (MHOM/MA/67/ITMAP-263) were cultivated in 5 ml of Schneider's insect medium, which was supplemented with 10% heat-inactivated fetal bovine serum (FBS), 200 U ml^−1 of penicillin/streptomycin, 6 μg ml^−1 of phenol red, and 5 mM of HEPES. The cultures were maintained in an incubator at 27 °C and diluted to a concentration of 2 × 10^5 cells per ml every 5 days. For the assays the parasites used were equivalent to late/log with two or three days of culture.
The efficacy of the compounds against L. infantum promastigotes was evaluated using a resazurin-based assay. Parasites were added to 100 μl of serial dilutions of the compounds in supplemented complete medium at a cell density of 5 × 10^5 ml^−1. As a quality control, a dose–response curve with the antileishmanial drug miltefosine was included in all assays. The final volume of each assay was 200 μl per well, and each condition was tested in duplicate. After a 72-hour incubation under specific conditions for each parasite, 20 μl of a 0.5 mM resazurin solution was added, and the plates were incubated for an additional 4 hours under the same conditions. Fluorescence was measured at 544 nm for excitation and 590 nm for emission using a Synergy 2 Multi-Mode Reader (Biotek, Winooski, VT, USA). Results were expressed as the percentage of parasite growth inhibition compared to controls (untreated parasites) and represent the average of at least three independent experiments. The effect was evaluated by determining the IC50 value (the concentration required to inhibit 50% growth), calculated using non-linear regression curves via GraphPad Prism version 8.1.1 for Windows (GraphPad Software, San Diego, CA, USA).

[3] = system: T. cruzi intracellular amastigotes; assay: microbe, parasite or virus in culture; assay type: cell-based, Trypanosoma cruzi CL Brener PpyRE9h:mScarlet; settings: Trypanosoma cruzi, 120 h; in HeLa cells, 5 days
Method: Assays were performed in 96-well black (clear bottom) microtitre plates (Corning Inc.). HeLa ^† cells were seeded at 10^4 per well, incubated for 3 days, and then infected with T. cruzi CL Brener PpyRE9h : mScarlet[25] culture form trypomastigotes (1 : 1 multiplicity of infection). After 16 hours, extracellular parasites were removed by washing in growth medium (×3), test compounds were added, and the plates incubated for 5 days. Fluorescence intensities were then determined using a BMG FLUOstar Omega plate reader (ex 545 nm, em 590 nm), and the data analysed using GraphPad Prism 9.0 software. The values were expressed as IC50/90 ± SD and are the mean of triplicate experiments.

[4] = system: bloodstream-form Trypanosoma brucei; assay: Activity against bloodstream-form Trypanosoma brucei (Alamar Blue growth inhibition); assay type: cell-based, Trypanosoma brucei (strain 427); settings: for IC50 / IC90: Trypanosoma brucei, bloodstream form; for IC50: concentration that inhibits growth by 50%, read-out: T. brucei IC50; for IC90: concentration that inhibits growth by 90%, read-out: T. brucei IC90; for S.I. (selectivity index): ratio of IC50 values obtained with L6 cells and T. brucei
Method: Bloodstream form T. brucei (strain 427) were cultured at 37 °C in modified Iscove's medium. Trypanocidal activity was assessed by growing parasites in microtiter plates in the presence of various drug concentrations. […] The plates were incubated for 48 hours at 37 °C and 20 μL Alamar Blue was then added to each well. After an additional overnight incubation, the fluorescence was determined using a Gemini fluorescent plate reader (Molecular Devices). Inhibition of growth was calculated by comparison with control values and IC50 and IC90 values were determined in triplicate using linear regression analysis.

T. cruzi epimastigotes = assay: Activity against Trypanosoma cruzi epimastigotes (Alamar Blue growth inhibition); assay type: cell-based, Trypanosoma cruzi (strain CL Brener); settings: CL Brener
Method: Trypanocidal activity was assessed by growing parasites in microtiter plates in the presence of various drug concentrations. […] The plates were incubated for 4 days at 28 °C and 20 μL Alamar Blue (Biosource UK Ltd) was then added to each well. After an additional 3 days incubation, the fluorescence was determined using a Gemini fluorescent plate reader (Molecular Devices). Inhibition of growth was calculated by comparison with control values and IC50 and IC90 values were determined in triplicate using linear regression analysis.

L6 cells = assay: Cytotoxic activity against rat skeletal myoblast L6 cells (Alamar Blue); assay type: cell-based; settings: 120 h, cytotoxicity, 5 days
Method: The cytotoxicity against mammalian cells was assessed using microtitre plates. Briefly, L6 cells (a rat skeletal muscle line) were seeded at 1 × 10^4 mL^−1 in 200 μL of RPMI-1640 growth medium (with 10% fetal calf serum) containing 7 different compound concentrations in a range previously established to encompass both the IC50 and IC90 values. The plates were incubated for 5 days at 37 °C and 20 μL Alamar Blue (Biosource Ltd, Wilton, North Yorkshire England.) was then added to each well. After an additional 8 hours incubation, the fluorescence was determined using a Gemini fluorescent plate reader (Molecular Devices). Inhibition of growth was calculated by comparison with control values and IC50 and IC90 values were determined in triplicate using linear regression analysis.

Row | SMILES | CC50 at 72 h [1] | IC50 [2] | SI (promastigotes) CC50/Li IC50 [2] | IC50 [3] | IC90 [3] | IC50 [4] | IC90 [4] | S.I. (selectivity index) [4] | IC50 (T. cruzi epimastigotes) | IC90 (T. cruzi epimastigotes) | IC50 (L6 cells)
1 | O=C(Cc1ccc(C23CC4CC(CC(C4)C2)C3)cc1)NCCCn1ccnc1[N+](=O)[O-] [5b, 2-[4-(1-Adamantyl)phenyl]-N-[3-(2-nitro-1H-imidazol-1-yl)propyl] acetamide] | 50000 to 100000 nM | 4.81 µM | – | – | – | – | – | – | – | – | –
2 | O=C(Cn1ccnc1[N+](=O)[O-])NCCc1ccc(C2C3CC4CC(C3)CC2C4)cc1 (centres unmarked) [4c, N-[4-(2-Adamantyl)phenethyl]-2-(2-nitro-1H-imidazol-1-yl)acetamide] | > 50000 nM | 37.9 µM | SI > 1 | – | – | – | – | – | – | – | –
3 | O=C(Cn1ccnc1[N+](=O)[O-])NCCc1ccc(C23CC4CC(CC(C4)C2)C3)cc1 [3c, N-[4-(1-Adamantyl)phenethyl]-2-(2-nitro-1H-imidazol-1-yl) acetamide] | 50000 to 100000 nM | 22.1 µM | – | – | – | – | – | – | – | – | –
4 | O=C(Cn1ccnc1[N+](=O)[O-])NCc1ccc(C23CC4CC(CC(C4)C2)C3)cc1 [3b, N-[4-(1-Adamantyl)benzyl]-2-(2-nitro-1H-imidazol-1-yl)acetamide] | 50000 to 100000 nM | 13.8 µM | – | – | – | – | – | – | – | – | –
5 | O=C(Cc1ccc(C23CC4CC(CC(C4)C2)C3)cc1)NCCn1ccnc1[N+](=O)[O-] [5a, 2-[4-(1-Adamantyl)phenyl]-N-[2-(2-nitro-1H-imidazol-1-yl)ethyl] acetamide] | 25000 to 50000 nM | 3.48 µM | – | – | – | – | – | – | – | – | –
6 | O=C(NCCc1ccc(C23CC4CC(CC(C4)C2)C3)cc1)c1ccc([N+](=O)[O-])o1 [1b] | 50000 to 100000 nM | 0.66 µM | – | – | – | – | – | – | – | – | –
7 | O=C(NCCn1cnc([N+](=O)[O-])n1)c1ccc(C23CC4CC(CC(C4)C2)C3)cc1 [6a, 4-(1-Adamantyl)-N-[2-(3-nitro-1H-1,2,4-triazol-1-yl)ethyl] benzamide] | 25000 to 50000 nM | 0.74 µM | – | 4880 ± 510 nM | 21400 ± 3400 nM | 230 ± 50 nM | 360 ± 30 nM | 120 | 540 ± 20 nM | 1200 ± 10 nM | 28000 ± 7000 nM
8 | O=C(Nc1ccc(C23CC4CC(CC(C4)C2)C3)cc1)c1ccc([N+](=O)[O-])o1 [7a, N-[4-(1-Adamantyl)phenyl]-5-nitrofuran-2-carboxamide] | 6250 to 25000 nM | 0.76 µM | – | – | – | 91 ± 5 nM | 220 ± 10 nM | – | > 25 nM | > 25 nM | < 30 nM
9 | O=C(Cn1cnc([N+](=O)[O-])n1)Nc1ccc(C23CC4CC(CC(C4)C2)C3)cc1 [7b, N-[4-(1-Adamantyl)phenyl]-2-(3-nitro-1H-1,2,4-triazol-1-yl)acetamide] | – | – | – | – | – | 200 ± 70 nM | 910 ± 190 nM | 35 | – | – | 7100 ± 300 nM
10 | O=C(Cn1cnc([N+](=O)[O-])n1)Nc1ccccc1C12CC3CC(CC(C3)C1)C2 [7c, N-[2-(1-Adamantyl)phenyl]-2-(3-nitro-1H-1,2,4-triazol-1-yl)acetamide] | – | – | – | – | – | > 25000 nM | > 25000 nM | – | > 25000 nM | > 25000 nM | –
11 | O=C(Nc1ccc(C2C3CC4CC(C3)CC2C4)cc1)c1ccc([N+](=O)[O-])o1 (centres unmarked) [2a, N-[4-(2-Adamantyl)phenyl]-5-nitrofuran-2-carboxamide] | 1560 to 6250 nM | 0.12 µM | – | – | – | 130 ± 40 nM | 330 ± 20 nM | 4 | 550 ± 50 nM | 1200 ± 30 nM | 470 ± 70 nM
12 | CSc1ccc(OCc2ncc([N+](=O)[O-])n2C)cc1 [Fxd, fexinidazole, reference compound] | – | – | – | – | – | 2400 ± 200 nM | – | – | – | – | –
13 | O=C(NCc1ccc(C23CC4CC(CC(C4)C2)C3)cc1)c1ccc([N+](=O)[O-])o1 [1a] | > 100000 nM | 3.46 µM | SI > 29 | – | – | – | – | – | – | – | –
14 | O=C(NCCc1ccc(C2C3CC4CC(C3)CC2C4)cc1)c1ccc([N+](=O)[O-])o1 (centres unmarked) [2c, N-[4-(2-Adamantyl)phenethyl]-5-nitrofuran-2-carboxamide] | 3130 to 12500 nM | 0.05 µM | – | – | – | 42 ± 8 nM | 73 ± 8 nM | 42 | 280 ± 80 nM | 1200 ± 80 nM | 1800 ± 200 nM
15 | O=C(Cn1ccnc1[N+](=O)[O-])Nc1ccc(C23CC4CC(CC(C4)C2)C3)cc1 [3a, N-[4-(1-Adamantyl)phenyl]-2-(2-nitro-1H-imidazol-1-yl)acetamide] | 25000 to 100000 nM | 0.7 µM | – | – | – | – | – | – | – | – | –
16 | O=C(Cn1ccnc1[N+](=O)[O-])NCc1ccc(C2C3CC4CC(C3)CC2C4)cc1 (centres unmarked) [4b, N-[4-(2-Adamantyl)benzyl]-2-(2-nitro-1H-imidazol-1-yl)acetamide] | > 100000 nM | > 40 µM | – | – | – | – | – | – | – | – | –
